Laboratory results taken from USRE38169E1, “Hyperstabilizing antisense nucleic acid binding agents” (priority 1993, dated 2003).

Columns and labels:
Poly rA - Oligo dT (PO) = assay: Duplex strand separation temperature (Tm); format: binding
Description: (§1) Samples for determining Tm were also obtained by the above procedures. […] Thus the effects of this agent on Tm were carried out with Distamycin in solution with the duplexes tested.
(§2) Tm's were determined on a Gilford 2400 Spectrophotometer set at 260 nm, with a 4-chamber Peltier-based temperature controller. Temperature was ramped linearly at 0.5° C./min. Absorbance data were acquired with a 12-bit A/D converter, and data were processed with Lotus 123W and SigmaPlot software. Tm values were determined from the plots as the midpoint of the thermal transitions.

Oligo dA - Oligo dT = assay: Duplex strand separation temperature (Tm); format: binding
Description: as §1, §2

Poly(rA)-Oligo(dT) = assay: Binding of drug to duplex (NACS column, A365/A260); settings: for Final D/N (CC-1065/nucleotide) Bound to Duplex: Poly(rA)-Oligo(dT)
Description: (§3) Oligodeoxyribonucleotides were obtained by chemical synthesis through standard techniques on an automated synthesizer located in the Department of Veterinary Microbiology and Parasitology at Louisiana State University. Antisense MP and PS oligonucleotides were obtained from commercial sources, as was synthetic sense RNA. Poly(rA) was obtained from Sigma Chemical Co. CC-1065 was obtained from the Upjohn Company. Oligonucleotides (0.075 μmol-P each) were mixed in 0.36 ml 0.01 M Na cacodylate buffer, pH 7.2, with CC-1065 in dimethyl formamide (0.04 ml), or with dimethylformamide only. (Note that “μmol-P” denotes μmoles of phosphate; i.e., μmoles of nucleotide bases, rather than of oligonucleotides per se.) Incubations of complementary strands, with or without drug, were carried out at 37° C. for 4 hr. In the initial experiments, unbound drug was separated from nucleotide duplexes by ethanol precipitation. Equivalent results were obtained by trapping the oligonucleotides and CC-1065 on NACS-52 columns, and washing first with low-salt buffer and then with buffer containing 1M NaCl. Unbound CC-1065 was completely retained on the column. […] Samples prepared in this manner could be directly used for determination of binding of the drug to the nucleic acid (as measured by the A365/A260 ratio), with the extinction of CC-1065 absorbance at 365 nm taken as 48,000, and the extinction of the nucleic acid absorption at 260 nm based on its composition. Similar approaches were used with the drug U-71,184, with an assumed extinction of 32,000 at 365 nm.
(§4) When methyl phosphonate and synthetic RNA were used, the purities of the crude oligonucleotides were taken to be about 30%, based on the data sheet prepared by the supplier. (The remainder comprised primarily truncated sequences.) Appropriate excess amounts of these agents were included in the reactions to ensure helix formation. The corresponding sense or antisense oligonucleotides were maintained at 0.075 μmol-P in the reaction. […] Unpurified materials were used in these preliminary studies because of the relatively high cost of purified oligoribonucleotides. The majority of the contributions to A260 for these samples should be due to material that was not duplexed.
(§5) Table 1 summarizes binding data obtained from incubations of CC-1065 with nucleotides at greater than stoichiometric levels; the levels used in these experiments were 1 drug molecule/10 nucleotide residues, which is equivalent to 4 drug molecules/20-mer duplex. […] There seemed to be no difference in drug binding between antisense oligonucleotides with a PO and those with a PS backbone. Again, the 5′-AGTTA-3′ sequence on the sense strand was presumably the primary target, and the 3′-AAGTA-5′ on the antisense probe was presumably the secondary target.

Oligo(dA)-Oligo(dT) = assay: Binding of drug to duplex (NACS column, A365/A260); settings: for Final D/N (CC-1065/nucleotide) Bound to Duplex: Oligo(dA)-Oligo(dT)
Description: as §3, §4, §5

[1] = test system: single-stranded materials; assay: Binding of drug to single strands; settings: under the conditions used
Excerpt: as §4

[2] = test system: mRNA of a fragment of the env gene of EIAV; assay: In vitro translation (wheat-germ extract, 35S-methionine); format: biochemical; settings: 1.95 μg mRNA; antisense about 3 times mRNA sense; CC-1065 3 times antisense; scintillation spectrometry
Description: The in vitro translation studies were performed as follows. A fragment of DNA from the env gene of EIAV was transcribed with an SP-6 polymerase kit, and the resulting mRNA (approximately 600 bases long) was capped and isolated. The transcribed fragment included the target sequence 5′-[…]-3′ (SEQ ID NO. 3) (the CC-1065 binding site is underlined). The corresponding antisense sequence (using normal phosphodiester chemistry) was 5′-[…]-3′ (SEQ ID NO. 4). Translation was performed with a wheat-germ extract (Promega) in the presence of ^35S-methionine. The mRNA's were divided into approximately 2 μg aliquots, and treated according to the protocols listed for Table 3 below. Treated mRNA was separated from small molecules (such as DMSO and CC-1065) with a Sephadex 50-based NICK column. Translation was carried out in 25 μl of buffer containing the wheat germ translation system; the isolated mRNA; amino acids, including the labelled methionine; and RNAsin, an inhibitor of RNase. The proteins produced were divided into two aliquots. One aliquot was fractionated by SDS-PAGE, followed by autoradiography; and the other was analyzed by scintillation spectrometry. The concentrations of antisense oligomers and CC-1065 in the free-solution chemistries were relatively high compared to the sense target, to optimize duplex formation and drug binding. […] The following pairs were different at the P<0.05 level by Student's t-test (unpaired analysis): 1,5; 2,5; 3,4; 3,5; 4,5.

[3] = test system: RNA sense / DNA-PO antisense duplex; assay: Binding of drug to duplex (NACS column); parameters: species or system equine infectious anemia retrovirus; settings: saturation; initial CC-1065/nucleotide 0.1; 37° C., 4 hr
Description: (§6) Oligodeoxyribonucleotides were obtained by chemical synthesis through standard techniques on an automated synthesizer located in the Department of Veterinary Microbiology and Parasitology at Louisiana State University. Antisense MP and PS oligonucleotides were obtained from commercial sources, as was synthetic sense RNA. Poly(rA) was obtained from Sigma Chemical Co. CC-1065 was obtained from the Upjohn Company. Oligonucleotides (0.075 μmol-P each) were mixed in 0.36 ml 0.01 M Na cacodylate buffer, pH 7.2, with CC-1065 in dimethyl formamide (0.04 ml), or with dimethylformamide only. (Note that “μmol-P” denotes μmoles of phosphate; i.e., μmoles of nucleotide bases, rather than of oligonucleotides per se.) Incubations of complementary strands, with or without drug, were carried out at 37° C. for 4 hr. In the initial experiments, unbound drug was separated from nucleotide duplexes by ethanol precipitation. Equivalent results were obtained by trapping the oligonucleotides and CC-1065 on NACS-52 columns, and washing first with low-salt buffer and then with buffer containing 1M NaCl. […] Samples prepared in this manner could be directly used for determination of binding of the drug to the nucleic acid (as measured by the A365/A260 ratio), with the extinction of CC-1065 absorbance at 365 nm taken as 48,000, and the extinction of the nucleic acid absorption at 260 nm based on its composition. […]

[4] = test system: RNA sense / DNA-PS antisense duplex; assay: Binding of drug to duplex (NACS column); parameters: species or system equine infectious anemia retrovirus; settings: saturation; initial CC-1065/nucleotide 0.1; 37° C., 4 hr
Description: as §6

[5] = CC-1065 initial D/N = 0.025, regions lacking CC-1065
[6] = CC-1065 initial D/N = 0.025, regions with CC-1065
[7] = CC-1065 initial D/N = 0.1, minimum Tm estimate
[8] = saturation, initial CC-1065/nucleotide 0.1, 37° C., 4 hr

COc1c(O)c2c(c3cc(C(=O)N4CCc5c4c(O)c(OC)c4[nH]c(C(=O)N6CC7CC78C6=CC(=O)c6[nH]cc(C)c68)cc54)[nH]c13)CCN2C(N)=O (stereo not drawn) [CC-1065]
Tm, lower transition of biphasic curve (Poly rA - Oligo dT (PO); [5]): 51 °C
Tm, higher transition of biphasic curve (Poly rA - Oligo dT (PO); [6]): 76 °C
Tm (Poly rA - Oligo dT (PO); [7]): ≥ 81.3 ± 0.6^4,5 °C
Duplex Strand Separation Temperature (Poly rA - Oligo dT (PO); Poly rA / Oligo dT (PO), drug-bound duplex (Table 6)): ≥ 81.3 ± 0.6^4
Stabilization of duplexes (Poly rA - Oligo dT (PO); poly(rA)-oligo(dT)): strong stabilization
Tm Elevation (Poly rA - Oligo dT (PO); rA-dT, highest level of binding obtained): 28.3 °C
Tm, lower transition of biphasic curve (Oligo dA - Oligo dT; [5]): 50 °C
Tm, higher transition of biphasic curve (Oligo dA - Oligo dT; [6]): 85 °C
Tm (Oligo dA - Oligo dT; [7]): ≥ 85.5 ± 0.7^4,5 °C
Duplex Strand Separation Temperature (Oligo dA - Oligo dT; Oligo dA / Oligo dT, drug-bound duplex (Table 6)): ≥ 85.5 ± 0.7^4
Tm Elevation (Oligo dA - Oligo dT; dA-dT, highest level of binding obtained): 28.5 °C
Final D/N (CC-1065/nucleotide) Bound to Duplex (Poly(rA)-Oligo(dT); Initial D/N 0.01): 0.003 ± 0.002
Final D/N (CC-1065/nucleotide) Bound to Duplex (Poly(rA)-Oligo(dT); Initial D/N 0.025): 0.008 ± 0.004
Final D/N (CC-1065/nucleotide) Bound to Duplex (Poly(rA)-Oligo(dT); Initial D/N 0.04): 0.011 ± 0.004
Final D/N (CC-1065/nucleotide) Bound to Duplex (Poly(rA)-Oligo(dT); Initial D/N 0.065): 0.022 ± 0.004
Final D/N (CC-1065/nucleotide) Bound to Duplex (Poly(rA)-Oligo(dT); Initial D/N 0.10): 0.028 ± 0.001
Approx. No. CC-1065 Bound/20 Base Pairs (Poly(rA)-Oligo(dT); [8]): ~1
Final D/N (CC-1065/nucleotide) Bound to Duplex (Oligo(dA)-Oligo(dT); Initial D/N 0.01): 0.008 ± 0.001
Final D/N (CC-1065/nucleotide) Bound to Duplex (Oligo(dA)-Oligo(dT); Initial D/N 0.025): 0.018 ± 0.0006
Final D/N (CC-1065/nucleotide) Bound to Duplex (Oligo(dA)-Oligo(dT); Initial D/N 0.04): 0.028 ± 0.006
Final D/N (CC-1065/nucleotide) Bound to Duplex (Oligo(dA)-Oligo(dT); Initial D/N 0.065): 0.058 ± 0.002
Final D/N (CC-1065/nucleotide) Bound to Duplex (Oligo(dA)-Oligo(dT); Initial D/N 0.10): 0.063 ± 0.002
Approx. No. CC-1065 Bound/20 Base Pairs (Oligo(dA)-Oligo(dT); [8]): ~2.5
Binding to single-stranded materials [1]: found not to bind to single-stranded materials
DPM S-35 ± standard error [2]: 133.040 ± 13.227 DPM
Approx. No. CC-1065 Bound/20 Base Pairs [3]: ~1
Approx. No. CC-1065 Bound/20 Base Pairs [4]: ~1
